Measurements published in patent publication US20250304576A1 (Cancer Research Technology Limited, priority 2022, published 2025).

Tests used:
Recombinant IKKα = target: T1, Recombinant IKKα (Homo sapiens, UniProt O15111); assay: DELFIA IKKα kinase assay (apparent Ki, Cheng-Prusoff); type: biochemical; settings: DELFIA assay (first line of an example)
T1 construct: purchased Millipore, Dundee, UK
T1 sequence (O15111 1-745): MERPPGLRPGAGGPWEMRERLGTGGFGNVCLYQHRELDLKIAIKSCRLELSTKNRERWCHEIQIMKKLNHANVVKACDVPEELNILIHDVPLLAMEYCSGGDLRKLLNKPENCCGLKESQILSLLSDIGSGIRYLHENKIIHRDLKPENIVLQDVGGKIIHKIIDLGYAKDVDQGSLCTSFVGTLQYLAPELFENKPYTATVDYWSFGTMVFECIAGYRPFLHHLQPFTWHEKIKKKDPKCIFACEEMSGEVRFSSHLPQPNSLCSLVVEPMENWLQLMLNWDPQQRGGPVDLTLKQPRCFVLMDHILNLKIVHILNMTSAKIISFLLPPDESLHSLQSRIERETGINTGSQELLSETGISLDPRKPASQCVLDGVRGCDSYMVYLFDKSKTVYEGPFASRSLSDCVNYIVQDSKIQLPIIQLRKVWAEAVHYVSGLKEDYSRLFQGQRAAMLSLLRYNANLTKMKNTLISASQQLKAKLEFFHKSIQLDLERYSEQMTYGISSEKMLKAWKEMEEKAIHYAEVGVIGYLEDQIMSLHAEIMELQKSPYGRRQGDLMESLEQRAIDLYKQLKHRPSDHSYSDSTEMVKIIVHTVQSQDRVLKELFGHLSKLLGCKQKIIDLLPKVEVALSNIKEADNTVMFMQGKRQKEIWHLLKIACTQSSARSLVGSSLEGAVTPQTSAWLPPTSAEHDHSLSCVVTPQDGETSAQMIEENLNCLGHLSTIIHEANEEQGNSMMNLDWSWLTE
How it was run: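 Recombinant IKKα or IKKβ (37 nM) with 0.375 μM biotinylated IκB-α (Ser32) peptide and 40 μM ATP in 40 mM Tris-HCl pH 7.5, 20 mM MgCl2, 60 min at 30° C. Phospho-substrate captured on streptavidin and detected by anti-phospho-IκB-α plus europium anti-mouse IgG time-resolved fluorescence; apparent Ki via Cheng-Prusoff.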

CHUK (IKK alpha) = target: T2, CHUK (IKK alpha) (Homo sapiens, UniProt O15111); assay: Adapta IKKα assay (TR-FRET ADP formation, Life Technologies); type: biochemical; settings: Adapta assay (second line of an example)
T2 construct: purchased Life Technologies (assay performed by the vendor)
T2 sequence (O15111 1-745): T1 sequence (O15111 1-745)
Experimental: IKKα and IKKβ inhibitory activity was determined using three different assays: a dissociation enhanced ligand fluorescent immunoassay (DELFIA) based on the protocol of HTScan™ IKKβ Kinase Assay (Cell Signaling Technology, USA); an Adapta IKKα assay (performed by Life Technologies); a Z′-LYTE™ IKKβ assay (performed by Life Technologies).
The reaction was performed in low-volume white 384-well plates (Corning model 4512).
The test compounds were screened in 1% DMSO (final) in the well. For 10 point titrations, 3-fold serial dilutions were conducted from the starting concentration of 50 mM.
The 2× CHUK (IKK alpha) kinase was prepared in 50 mM HEPES pH 7.5, 0.01% BRIJ-35, 10 mM MgCl2 and 1 mM EGTA. The final 10 μL kinase mixture consisted of 50-250 ng CHUK (IKK alpha) in 32.5 mM HEPES pH 7.5, 0.005% BRIJ-35, 5 mM MgCl2 and 0.5 mM EGTA. No substrate was required, as the assay measures the ability of a compound to inhibit the kinase's intrinsic ATPase activity.
5 μL of 2× Kinase mixture was incubated with 2.5 μL of ATP solution diluted to a 4×working concentration in water, in the presence of 100 nL of 100× test compound in 100% DMSO and 2.4 μL of 30 mM HEPES buffer.
After 30-second plate shake and 1-minute centrifuge at 1000×g, the resulting kinase reaction was allowed to incubate for 1 hour at room temperature before 5 μL of Detection Mix was added.
The Detection Mix, previously prepared in TR-FRET Dilution Buffer, consisted of EDTA (30 mM), Eu-anti-ADP antibody (6 nM) and an Alexa Fluor™ 647 labelled ADP tracer. The Detection Mix contained the EC60 concentration of tracer for 5-150 μM ATP.
After 30-second plate shake and 1-minute centrifuge at 1000×g, the Detection Mix was allowed to equilibrate at room temperature for 1 hour. Then the plate was read using a fluorescence plate reader configured for Adapta™ TR-FRET and the data analysed.
ADP formation was determined by calculating the emission ratio from the assay well. Therefore, the emission ratio was calculated by dividing the intensity of the tracer (acceptor) emission by the intensity of the Eu (donor) emission at 615 nm as shown in the equation below.
The IKKα and IKKb figures quoted in italicised form are from the Adapta assay described above.

| Ki (Recombinant IKKα) [nM] | IC50 (CHUK (IKK alpha)) [nM] | Structure (SMILES) |
| --- | --- | --- |
| 27 | 1 | Nc1n[nH]c2ccc(-c3ccnc4[nH]c(C5CCCCO5)cc34)cc12 (stereo not drawn) [Example 229, 5-(2-(Tetrahydro-2H-pyran-2-yl)-1H-pyrrolo[2,3-b]pyridin-4-yl)-1H-indazol-3-amine] |
| 23 | 27 | Nc1n[nH]c2c(C#CCCCN3CCOCC3)cc(-c3ccnc4[nH]ccc34)cc12 [Example 210, 7-(5-Morpholinopent-1-yn-1-yl)-5-(1H-pyrrolo[2,3-b]pyridin-4-yl)-1H-indazol-3-amine] |
| 19 | 26 | Nc1n[nH]c2ccc(-c3ccnc4[nH]c(CCC5CCCCC5)cc34)cc12 [Example 222, 5-(2-(2-Cyclohexylethyl)-1H-pyrrolo[2,3-b]pyridin-4-yl)-1H-indazol-3-amine] |
